Test results as given in patent publication US10077269B2, “Imidazopyridazine compounds” (Pfizer Inc., priority 2014, dated 2018).

Biological target: Human PDE4D FL (Homo sapiens (Human), UniProt Q08499)
Test: PDE4D3 Scintillation Proximity Assay (SPA), inhibition of enzyme activity
Assay type: biochemical
Details: geometric mean of 2-9 determinations unless otherwise indicated; 1 μM cAMP, 30 min at 25° C.

Chain of Human PDE4D FL (Q08499 186-808): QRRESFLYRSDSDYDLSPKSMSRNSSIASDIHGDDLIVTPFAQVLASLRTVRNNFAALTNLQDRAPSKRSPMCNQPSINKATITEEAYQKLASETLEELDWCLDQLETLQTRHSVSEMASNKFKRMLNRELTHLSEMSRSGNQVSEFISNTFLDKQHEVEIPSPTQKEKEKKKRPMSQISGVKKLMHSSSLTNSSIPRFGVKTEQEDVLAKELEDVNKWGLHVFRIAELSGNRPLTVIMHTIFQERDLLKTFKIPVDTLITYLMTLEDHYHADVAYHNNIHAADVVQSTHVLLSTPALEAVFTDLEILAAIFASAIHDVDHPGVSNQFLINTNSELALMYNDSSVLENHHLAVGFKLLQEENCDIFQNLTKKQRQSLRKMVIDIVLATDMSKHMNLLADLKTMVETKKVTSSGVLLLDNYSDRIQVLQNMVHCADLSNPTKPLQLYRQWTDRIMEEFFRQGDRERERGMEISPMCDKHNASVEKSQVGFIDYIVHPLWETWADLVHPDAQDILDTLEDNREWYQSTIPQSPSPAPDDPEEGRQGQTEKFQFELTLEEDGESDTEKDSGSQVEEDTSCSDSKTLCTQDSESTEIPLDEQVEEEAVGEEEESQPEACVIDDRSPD

SMILES | IC50 [µM]
COC1CN(C(=O)c2nc3cccnn3c2-c2ccc(Cl)cc2)C1 [Example 31, [3-(4-chlorophenyl)imidazo[1,2-b]pyridazin-2-yl](3-methoxyazetidin-1-yl)methanone] | > 26.2
O=C(NC1CC1)c1nc2cccnn2c1-c1ccnc(C(F)(F)F)c1 [Example 42, N-cyclopropyl-3-[2-(trifluoromethyl)pyridin-4-yl]imidazo[1,2-b]pyridazine-2-carboxamide] | > 12.2
